Results published in PMC9324693, “α-Hydroxylactams as Efficient Entries to Diversely Functionalized Ferrociphenols: Synthesis and Antiproliferative Activity Studies” (Molecules, 2022).

Tests used:
MCF-7 = assay: MTT cell viability assay on MCF-7 cells; assay type: cell-based; conditions: for EC50: 96-well plates, 4000 cells/well, viability after 3 days by MTT, mean ± SD of three independent experiments
Experimental: (§1) A prerequisite to further bioorthogonal modifications is to preserve the biological properties of ferrociphenol compounds. Then, the impact of some of the grafted substituents on the antiproliferative activity was examined by a classical MTT cell viability assay on the two breast cancer cell lines MDA-MB-231 and MCF-7 as well as on the non-tumorigenic cell line hTERT-RPE1 (Table 3). The two cancer cell lines were chosen since most of the previously reported data on ferrocifens were carried out on these cellular models. The experimental protocol is described in Section 3.14., and it is important to emphasize here that the EC50 values reported in Table 3 are not to be compared to the IC50 values reported in the literature, since the assay conditions are different. For this reason, we included as a reference the ferrocenyl derivative of hydroxytamoxifen Fc-OH-TAM-3 [8] that is known to be cytotoxic to numerous cell lines. […] This feature was taken into account when performing data fitting.
(§2) MDA-MB-231, MCF-7, and hTERT-RPE1 cells were obtained from ATCC. Cells were maintained in a monolayer culture in DMEM with phenol red with Glutamax I (MDA-MB-231) or 2 mM L-glutamine (MCF-7) or 15 mM HEPES (hTERT-RPE1) supplemented with 10% FBS at 37 °C in a humidified atmosphere and 5% CO2. Stock solutions of the complexes were prepared in DMSO. Cells were seeded in 96-well plates at a density of 4000 cells/well. After overnight attachment, a dilution series of the compounds were added in the medium, and cells were incubated for a further 72 h. […] Cell viability was evaluated by using a colorimetric method based on the tetrazolium salt MTT [3-(4,5-dimethylthiazol-2-yl)-2,5-diphenyltetrazolium bromide], which is reduced by viable cells to yield purple formazan crystals. After 72 h, the medium was removed and the cells were incubated with MTT solution in PBS (10 μL of a 5 mg/mL) for 2–3 h of incubation. The formed purple formazan crystals were dissolved in 100 μL DMSO by thorough shaking, and the absorbance at 560 nm was read using a microplate reader (FLUOstar OPTIMA, BMG Labtech, Ortenberg, Germany). Each test was performed with at least three replicates and repeated at least three times. EC50 were determined using Dr Fit software.

hTERT-RPE1 = assay: MTT cell viability assay on non-tumorigenic hTERT-RPE1 cells; assay type: cell-based; conditions: for EC50: 96-well plates, 4000 cells/well, viability after 3 days by MTT, mean ± SD of three independent experiments; for toxicity on hTERT-RPE1 compared with MCF-7: comparison of EC50 values
Experimental: as §1, §2

MDA-MB-231 = assay: MTT cell viability assay on MDA-MB-231 cells; assay type: cell-based; conditions: for EC50: 96-well plates, 4000 cells/well, viability after 3 days by MTT, mean ± SD of three independent experiments
Experimental: as §1, §2

[1] = tested on: triple negative breast cancer cell line MDA-MB-231; conditions: measured after 5 days of incubation (stated for B and C); cited from earlier work
[2] = tested on: NCI-60 panel of human cancer cells; parameters: method as in PMID 30977944; conditions: read-out: mean GI50 (half maximal growth inhibition); cited from earlier work
[3] = Solubility tests by shaking suspensions and RP-HPLC analysis of supernatants; assay type: physicochemical; conditions: for solubility in aqueous medium: water or PBS, shaken overnight at room temperature, RP-HPLC of supernatants, theoretical concentration 1 mM
Experimental: Due to water insolubility being a known issue for the ferrocidiphenol family, we exploited this strategy to attach substituents that could increase their solubility in a biologically relevant context. Thus, attaching short and monodisperse PEG chains seemed interesting. The tetraethylene glycol chain was readily grafted to A to afford 22 in 79% yield at room temperature in less than 3 h.
Figure S50: Solubility studies by RP-HPLC analysis of compounds 18 (A), 20 (B) and […]
A given amount of compounds 18, 20 and 22 was weighted and suspended in a given volume of tested solvent (DMSO, MeOH, PBS and H2O) to reach a theoretical concentration of 1 mM. Suspensions were sonicated for 1 min and shaken at R.T. for 18 h. The resulting solutions were filtrated (pore size 0.2 µm) and diluted to 100 µM in MeCN (for the solutions in organic solvents). HPLC analysis was performed on Nucleodur C18 column, (100 Å , 5 µm, 4.6 x 150 mm, Macherey-Nagel) using […]
(also on this page, place not known: MeOH DMSO PBS – H2O A PBS MeOH DMSO PBS B H2O MeOH DMSO PBS – H2O C) […]

HRP = molecular target: T1, HRP (Armoracia rusticana, UniProt P00433); assay: Enzymatic oxidation with HRP and H2O2; assay type: biochemical; conditions: fourfold molar excess of H2O2, HRP, pH 8.1; λmax 571–572 nm
T1 construct: purchased
T1 sequence (P00433 31-338 limits assumed): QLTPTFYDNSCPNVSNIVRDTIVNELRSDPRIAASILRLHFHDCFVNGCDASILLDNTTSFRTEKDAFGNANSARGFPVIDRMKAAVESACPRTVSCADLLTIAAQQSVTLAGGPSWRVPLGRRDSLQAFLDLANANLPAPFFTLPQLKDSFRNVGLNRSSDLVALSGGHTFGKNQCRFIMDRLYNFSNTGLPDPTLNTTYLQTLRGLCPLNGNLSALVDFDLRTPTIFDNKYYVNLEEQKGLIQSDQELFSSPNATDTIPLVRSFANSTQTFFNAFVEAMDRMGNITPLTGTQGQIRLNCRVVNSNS
Experimental: Enzymatic oxidation of 19, 20, 22, 23, and 25 was performed with a fourfold molar excess of H2O2 in the presence of HRP at pH 8.1. […] This behavior is reminiscent of that previously observed for a structurally related diphenol complex, which lets us conclude that enzymatic oxidation of 19, 20, 22, 23, and 25 affords the corresponding quinone methide in the anionic phenolate form, regardless of the substituent grafted from the phthalimide ring.
Figure S51. UV-vis spectra of compounds 19, 20, 22, 23 and 25 (50 µM) treated by HRP (46 nM) and H2O2 (200 µM) in 0.2 M TRIS buffer pH 8.1. Conversion to the phenolate form of the quinone methides is assessed by the appearance of the characteristic bands at ca. 570 and 360 nm. […]

[4] = tested on: glioblastoma cell model U87; parameters: method as in PMID 26136201; conditions: cited from earlier work

| Molecule | EC50 (MCF-7) | EC50 (hTERT-RPE1) | EC50 (MDA-MB-231) | solubility in aqueous medium [3] | toxicity on hTERT-RPE1 compared with MCF-7 (hTERT-RPE1) | enzymatic oxidation to quinone methide (HRP) | also measured |
| --- | --- | --- | --- | --- | --- | --- | --- |
| O=C1c2ccccc2C(=O)N1CCCC[c-]1cccc1.[Fe+2].c1cc[cH-]c1 [Compound 3h, N-(4-ferrocenylbutyl) Phthalimide] | > 50 µM | > 50 µM | > 50 µM |  |  |  | inhibition of cell growth, MCF-7 (MCF-7; MTT, 72 h): did not inhibit cell growth; inhibition of cell growth, hTERT-RPE1 (hTERT-RPE1; MTT, 72 h): did not inhibit cell growth; inhibition of cell growth, MDA-MB-231 (MDA-MB-231; MTT, 72 h): did not inhibit cell growth |
| O=C1CCC(=O)N1CCCC(=C(c1ccc(O)cc1)c1ccc(O)cc1)[c-]1cccc1.[Fe+2].c1cc[cH-]c1 [Compound B] |  |  |  |  |  |  | IC50 [1]: 0.035 µM; GI50 [2]: ~0.1 µM |
| O=C1c2ccccc2C(OCCOCCOCCOCCO)N1CCCC(=C(c1ccc(O)cc1)c1ccc(O)cc1)[c-]1cccc1.[Fe+2].c1cc[cH-]c1 (stereo not drawn) [Compound 22, O-{2,3-Dihydro-2-[4-ferrocenyl-5,5-bis-(4-hydroxyphenyl)-pent-4-enyl]-1H-isoindol-1-one-3-yl}-12-hydroxy-1,4,7,10-tetraoxadodecane] | 29.9 ± 1.3 µM | 24.7 ± 1.1 µM | 8.8 ± 2.5 µM | none of these compounds were soluble in aqueous medium | similar | rapidly converted to bright pink adducts |  |
| O=C1c2ccccc2C(CCCCCCO)N1CCCC(=C(c1ccc(O)cc1)c1ccc(O)cc1)[c-]1cccc1.[Fe+2].c1cc[cH-]c1 (stereo not drawn) [Compound 21, 2,3-Dihydro-3-(6-hydroxyhexyl)-2-[4-ferrocenyl-5,5-bis-(4-hydroxyphenyl)-pent-4-enyl]-1H-isoindol-1-one] |  |  |  |  |  |  | solubility in organic solvents [3]: improved the solubility in organic solvents including DCM |
| O=C1c2ccccc2C(CCO)N1CCCC(=C(c1ccc(O)cc1)c1ccc(O)cc1)[c-]1cccc1.[Fe+2].c1cc[cH-]c1 (stereo not drawn) [Compound 20, 2,3-Dihydro-3-(2-hydroxyethyl)-2-[4-ferrocenyl-5,5-bis-(4-hydroxyphenyl)-pent-4-enyl]-1H-isoindol-1-one] | 10.6 ± 0.3 µM | 5 ± 0.2 µM | 6.3 ± 2.1 µM | none of these compounds were soluble in aqueous medium | twice more toxic | rapidly converted to bright pink adducts | solubility in organic solvents [3]: poorly soluble in organic solvents, except for DMSO |
| O=C1c2ccccc2C(=O)N1CCCC(=C(c1ccc(O)cc1)c1ccc(O)cc1)[c-]1cccc1.[Fe+2].c1cc[cH-]c1 [A] |  |  |  |  |  |  | IC50 [1]: 0.145 µM; IC50 [4]: 0.018 µM |
| COCCOCCOCCOCCOCCOCCOCCSC1c2ccccc2C(=O)N1CCCC(=C(c1ccc(O)cc1)c1ccc(O)cc1)[c-]1cccc1.[Fe+2].c1cc[cH-]c1 (stereo not drawn) [Compound 27, S-{2,3-Dihydro-2-[4-ferrocenyl-5,5-bis-(4-hydroxyphenyl)-pent-4-enyl]-1H-isoindol-1-one-3-yl}-1-thia-4,7,10,13,16,19,22-heptaoxatricosane] |  |  |  | none of these compounds were soluble in aqueous medium |  |  |  |
| C#CCCCC1c2ccccc2C(=O)N1CCCC(=C(c1ccc(O)cc1)c1ccc(O)cc1)[c-]1cccc1.[Fe+2].c1cc[cH-]c1 (stereo not drawn) [Compound 23, 2,3-Dihydro-3-(pent-4-ynyl)-2-[4-ferrocenyl-5,5-bis-(4-hydroxyphenyl)-pent-4-enyl]-1H-isoindol-1-one] | 4.2 ± 0.7 µM | 12.9 ± 3.3 µM | 2.4 ± 0.5 µM |  |  | rapidly converted to bright pink adducts | selectivity: less toxic on hTERT-RPE1 with respect to MCF-7 (hTERT-RPE1; ratio of EC50 values): 3 fold |
| 2,3-Dihydro-3-(2-methoxycarbonylethylthio)-2-[4-ferrocenyl-5,5-bis-(4-hydroxyphenyl)-ent-4-enyl]-1H-isoindol-1-one [Compound 25] | 4.7 ± 1.4 µM | 9.1 ± 0.4 µM | 18 ± 0.4 µM |  | twice more toxic | rapidly converted to bright pink adducts |  |
| O-{2,3-Dihydro-2-[4-ferrocenyl-5,5-bis-(4-hydroxyphenyl)-pent-4-enyl]-1H-isoindol-1-one-3-yl}-24-azido-1,4,7,10,13,16,19,22-octaoxatetracosane [Compound 24] |  |  |  | none of these compounds were soluble in aqueous medium |  |  |  |
